These results are taken from publication PMC9504029, “Identification and Characterization of Novel Small-Molecule SMOX Inhibitors” (Medical Sciences, 2022).

Each structure is given as a SMILES string. Read-outs that look alike come from different tables or passages of the source. Some results are limits rather than exact numbers.

The target in one data set is T1, recombinant human MAO-A (Homo sapiens, UniProt P21397).
T1 construct: purchased Sigma-Aldrich M7316-1VL
T1 sequence (P21397 1-527): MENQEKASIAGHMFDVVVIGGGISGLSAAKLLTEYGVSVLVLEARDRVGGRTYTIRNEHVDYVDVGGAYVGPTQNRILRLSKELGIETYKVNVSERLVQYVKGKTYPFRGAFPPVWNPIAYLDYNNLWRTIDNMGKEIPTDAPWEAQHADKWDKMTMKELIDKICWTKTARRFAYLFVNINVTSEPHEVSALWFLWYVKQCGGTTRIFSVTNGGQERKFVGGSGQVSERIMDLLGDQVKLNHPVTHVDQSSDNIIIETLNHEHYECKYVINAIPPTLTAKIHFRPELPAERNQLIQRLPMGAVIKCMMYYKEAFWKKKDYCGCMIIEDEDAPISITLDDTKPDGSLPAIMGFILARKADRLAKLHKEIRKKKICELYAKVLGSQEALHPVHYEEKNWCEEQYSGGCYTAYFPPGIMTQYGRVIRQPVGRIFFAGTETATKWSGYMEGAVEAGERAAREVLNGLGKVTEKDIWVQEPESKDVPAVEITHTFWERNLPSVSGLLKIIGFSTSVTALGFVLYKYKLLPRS
The data set can be described thus: MAO-Glo assay, MAO-A. The class given is biochemical. To be noted: for inhibition at 20 µM: read-out: % Inhibition at 20 μM ± SD, MAO-A. The procedure:
(§1) To determine selectivity, the compounds were tested for activity against the related FAD-dependent amine oxidase enzymes LSD1, MAO-A, and MAO-B. LSD1 activity was assessed using a commercially available assay kit (#700120, Cayman Chemical, Ann Arbor, MI, USA), in which the enzyme activity was determined by the horseradish peroxidase-catalyzed oxidation of 10-acetyl-3,7-dihydroxyphenoxazine to the highly fluorescent resorufin in response to H2O2 production. Monoamine oxidase activity was determined using recombinant human MAO-A and MAO-B (M7316-1VL & M7441-1VL, Sigma-Aldrich, St. Louis, MO, USA) and a commercially available assay kit (#V1401, MAO-Glo, Promega, Madison, WI, USA), which utilizes the MAO-catalyzed oxidation of a luciferin derivative coupled with esterase activity to produce luminescence. Fluorescent and luminescent readout was obtained using a SpectraMax M5 plate reader (Molecular Devices) equipped with SOFTmax PRO 7.0.3 software. […] Values were reported as mean % inhibition ± SD of triplicate assay wells normalized to background activity and compared to the vehicle control.

Data set [1] concerns the target T2, SMOX (Homo sapiens, UniProt Q9NWM0).
T2 construct: using 0.3 µg/mL of purified SMOX enzyme and 2 mM of spermine substrate
Briefly: SMOX enzyme activity, HRP-luminol chemiluminescence assay. It counts as biochemical. As to conditions: 2 mM spermine; for inhibition at 20 µM: 20 µM compound, no pre-incubation, triplicate, read-out: % Inhibition at 20 μM ± SD, SMOX; for IC50: AUC over 60 s, pH 8. The procedure:
As the catabolism of spermine by SMOX results in the stoichiometric production of H2O2, enzyme activity was quantified by chemiluminescence generated by the horseradish peroxidase-catalyzed oxidation of luminol in 96-well plates (Costar #3912; white, flat bottom), as previously described. All assays were performed in 0.083 M glycine buffer at a pH of 8 using 0.3 µg/mL of purified SMOX enzyme and 2 mM of spermine substrate. Phosphate buffer was not used to prevent the formation of polyamine–phosphate complexes. Enzyme reactions were initiated by the addition of SMOX and HRP to all other assay components; inhibitors were not pre-incubated with enzyme. Triplicate determinations were obtained for each measurement by recording the luminescence (AUC) over 60 s. Hit compounds were then confirmed by monitoring the assay over 600 s. Each triplicate assay point contained a 4th control well to monitor and normalize the data with regards to luminescent decay over time. The compounds were initially screened for activity at a concentration of 20 µM. […] The known SMOX inhibitor, MDL-72527, was used as a control. The hit compounds were then characterized by IC50 and kinetic analyses. Percent inhibition values are reported as triplicate mean % SMOX inhibition ± SD compared to the vehicle control. IC50 values were calculated in GraphPad Prism 9.3 software (Graph-Pad, San Diego, California) using a non-linear regression analysis ([Inhibitor] vs. normalized response—variable slope). Data for all enzyme assays were generated using a SpectraMax M5 plate reader (Molecular Devices) equipped with SOFTmax PRO 7.0.3 software.

In a further data set the target is T3, LSD1 (Homo sapiens, UniProt O60341).
T3 construct: purchased Cayman Chemical #700120
The data set can be described thus: LSD1 selectivity assay (Cayman kit, resorufin fluorescence). It counts as biochemical. To be noted: read-out: % Inhibition at 20 μM ± SD, LSD1.

A further data set addresses T4, recombinant human MAO-B (Homo sapiens, UniProt P27338).
T4 construct: purchased Sigma-Aldrich M7441-1VL
T4 sequence (P27338 1-520): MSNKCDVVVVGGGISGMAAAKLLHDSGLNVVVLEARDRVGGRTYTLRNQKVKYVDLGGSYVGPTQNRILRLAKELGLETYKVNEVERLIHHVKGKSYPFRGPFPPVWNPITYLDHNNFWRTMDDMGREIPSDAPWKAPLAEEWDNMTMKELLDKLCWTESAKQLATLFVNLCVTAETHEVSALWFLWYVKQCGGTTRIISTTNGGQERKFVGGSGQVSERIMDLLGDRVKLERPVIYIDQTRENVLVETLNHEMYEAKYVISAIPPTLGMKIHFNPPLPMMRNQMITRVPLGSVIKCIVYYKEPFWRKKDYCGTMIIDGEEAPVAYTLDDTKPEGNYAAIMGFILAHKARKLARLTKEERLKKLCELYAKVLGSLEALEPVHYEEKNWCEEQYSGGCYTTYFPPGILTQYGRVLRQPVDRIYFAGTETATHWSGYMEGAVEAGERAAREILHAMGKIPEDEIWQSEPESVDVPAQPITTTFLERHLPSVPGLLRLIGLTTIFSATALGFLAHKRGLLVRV
Briefly: MAO-Glo assay, MAO-B. The class given is biochemical. To be noted: for inhibition at 20 µM: read-out: % Inhibition at 20 μM ± SD, MAO-B. The procedure:
as §1

A short description of data set [2]: Cytotoxicity analysis, MTS assay. It counts as cell-based. As to conditions: human, SH-SY5Y neuroblastoma cells, MTS. The procedure:
(§2) SH-SY5Y neuroblastoma cells purchased from ATCC (Manassas, VA, USA) were cultured in Dulbecco’s modified Eagle medium (DMEM) without phenol red and supplemented with 10% heat inactivated human AB serum, 4 mM L-glutamine, and 1% penicillin/streptomycin. As the oxidation of spermine by various polyamine oxidases has been documented in cell culture containing ruminant serum, such as in fetal bovine serum (FBS) and horse serum, human AB serum was used to prevent assay interference. The cells were maintained in 5% CO2 humidified atmosphere at 37 °C. Cell media was replaced every 2 days and the cells were discarded after a maximum of 15 passages.
(§3) The SH-SY5Y neuroblastoma cells were plated in 96-well plates at a density of 30,000 cells/well and allowed to reach 80% confluence, followed by treatment with varying concentrations of inhibitor ranging from 0 to 10 mM for 12 h. Cell viability was assessed by standard MTS assay, in which MTS reagent was added to each well at a concentration of 0.33 mg/mL and incubated at 37 °C for 3 h. Viability was monitored and confirmed by a visual inspection of the cells. Absorbance was read at 490 nm and the absorbance values were normalized to background wells containing varying concentrations of inhibitor, cell media, and MTS reagent. Colorimetric readout was obtained using a SpectraMax M5 plate reader (Molecular Devices) equipped with SOFTmax PRO 7.0.3 software.

Data set [3] relates to SH-SY5Y neuroblastoma cells. Briefly: Cytotoxicity analysis, MTS assay. It counts as cell-based. To be noted: doses below 1 mM. The procedure:
as §2, §3
A general note: Tetrazolium dyes change colour on reduction, which living cells bring about.

Data set [4] has as its target T2, SMOX. The data set can be described thus: Mechanism of inhibition and enzyme kinetics (Lineweaver–Burk, global fit). The class given is biochemical. The procedure: The mechanism of enzyme inhibition was determined using the HRP-luminol coupled enzyme assay described above. Reaction velocity (max RLU/sec over 10 min) was measured across multiple substrate and inhibitor concentrations, and individual triplicate values were plotted using a Lineweaver–Burk transformation (double-reciprocal) in GraphPad Prism 9.3 software (Graph-Pad, San Diego, CA, USA).

Data set [5] has as its target T2, SMOX. As to conditions: cited from earlier work.

T2 sequence (Q9NWM0 whole entry): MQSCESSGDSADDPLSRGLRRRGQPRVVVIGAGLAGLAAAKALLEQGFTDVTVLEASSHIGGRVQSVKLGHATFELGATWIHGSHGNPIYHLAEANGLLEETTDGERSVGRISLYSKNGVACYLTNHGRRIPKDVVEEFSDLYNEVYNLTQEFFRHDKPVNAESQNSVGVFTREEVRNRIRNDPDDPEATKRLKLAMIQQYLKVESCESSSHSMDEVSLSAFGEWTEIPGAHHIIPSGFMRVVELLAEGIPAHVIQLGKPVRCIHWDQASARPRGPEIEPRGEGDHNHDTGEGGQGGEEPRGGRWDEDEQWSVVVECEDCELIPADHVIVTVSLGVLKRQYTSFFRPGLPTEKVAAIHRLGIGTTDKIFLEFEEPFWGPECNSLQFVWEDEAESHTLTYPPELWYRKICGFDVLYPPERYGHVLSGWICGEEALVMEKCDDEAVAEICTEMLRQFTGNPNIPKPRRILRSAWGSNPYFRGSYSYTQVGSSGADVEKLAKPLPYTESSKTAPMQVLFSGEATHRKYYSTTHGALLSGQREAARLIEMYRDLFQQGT

Usually % Inhibition stands for the percentage by which the read-out fell short of the control. For `N[C@@H]1C[C@H]1c1ccccc1` (racemic) [TCP, Tranylcypromine, reference compound], at recombinant human MAO-A, the “% Inhibition at 20 μM ± SD, MAO-A” value stood at 92.6 ± 0.2%.

One may read the inhibition as the change of the read-out against control, counted positive when it falls. In general, IC50 refers to the concentration needed to halve the response being measured. Turning to `N=C(N)NCCCNCC(O)c1cc(O)cc(O)c1` (stereo not drawn) [Compound 2], the inhibition at 20 µM at SMOX [1] was 93.6 ± 1%; at LSD1, -18.7 ± 9.8%; at recombinant human MAO-A, -5.5 ± 4.2%; on recombinant human MAO-B it was 3.5 ± 1.3%. In addition, at SMOX [1], the half-maximal inhibitory concentration (IC50) is 8.3 µM.

On to `N=C(N)NCCCCNCC(O)c1cc(O)cc(O)c1` (stereo not drawn) [Compound 3], for which the inhibition at 20 µM was 96.7 ± 0.2% at SMOX [1], 41.6 ± 24.4% at LSD1, -13.7 ± 4.6% at recombinant human MAO-A and -16.9 ± 12.3% at recombinant human MAO-B. This compound gave a 50% inhibitory concentration (IC50) against SMOX [1] of 6.02 µM.

Consider `N=C(N)NCCNCC(O)c1ccc(O)c(O)c1` (stereo not drawn) [Compound 4], for which the inhibition at 20 µM on SMOX [1] is 95.7 ± 0.3%; at LSD1, 31.9 ± 12.6%; at recombinant human MAO-A, 15.5 ± 0.5%; at recombinant human MAO-B it was 12.6 ± 1.6%. The half-maximal inhibitory concentration (IC50) against SMOX [1] was 0.23 µM. The CC50 at 12 h in data set [2] (12 h post treatment, read-out: LC50 (dose corresponding to 50% viability)) is 3600 µM. Further, in data set [3], the “Toxicity after 12-h exposure” value is listed as “did not produce significant toxicity”.

`N=C(N)NCCCNCC(O)c1ccc(O)c(O)c1` (stereo not drawn) [Compound 5]: the inhibition at 20 µM on SMOX [1] came to 96.3 ± 0.1%; at LSD1, 46.2 ± 25.7%; at recombinant human MAO-A, 7.3 ± 0.7%; at recombinant human MAO-B, 4.5 ± 9.5%. Besides, at SMOX [1], the IC50 is 0.47 µM.

In general, Ki refers to a measure of affinity in units of concentration, obtained from inhibition or displacement. Take `N=C(N)NCCCNCC(O)c1cc(O)ccc1O` (stereo not drawn) [Compound 7]: at SMOX [1], the inhibition at 20 µM was 99.9 ± 0.1% and the IC50 is 0.23 µM. Also, the Mechanism of inhibition result at SMOX [4] (Lineweaver–Burk analysis) was “competitive”. This compound came in with a Ki at SMOX [4] (global fit for competitive inhibition, inhibitor 0, 0.1, 1 µM) of 0.46 µM. Also, the inhibition at 20 µM at LSD1 was more than 73%. Also, on recombinant human MAO-A, the “% Inhibition at 20 μM ± SD, MAO-A” value is reported as 45.1 ± 7.7% and the inhibition at 20 µM stood at 45%. Also, on recombinant human MAO-B, the “% Inhibition at 20 μM ± SD, MAO-B” value was determined as 29.1 ± 2.1% and the inhibition at 20 µM was determined as 29%. Also, in data set [2] (12 h, read-out: LC50), the CC50 at 12 h was determined as 130 µM.

Regarding `C=C=CCNCCCCNCC=C=C` [MDL-72527, N^1,N^4-bis(2,3-butadienyl)-1,4-butanediamine], the inhibition at 20 µM on SMOX [1] was determined as 10.2 ± 0.9%. Also, at SMOX [5], the half-maximal inhibitory concentration (IC50) was 89 to 100 µM, the Ki is 63 µM and the “Mechanism of inhibition of SMOX” value was “irreversible inhibitor”.

For `CC(C)=CCNC(=N)NCCCCN` [N-prenylagmatine], the “Mechanism of inhibition of SMOX” value on SMOX [5] is “competitive inhibitors”.

Take `[H]/N=C(\N/C(=N/[H])NCCCCCCNC(=N)NC(=N)Nc1ccc(Cl)cc1)Nc1ccc(Cl)cc1` [chlorhexidine]: on SMOX [5], the inhibitory constant (Ki) is 0.55 to 3.8 µM and the “Mechanism of inhibition of SMOX” value is given as “competitive inhibitors”.

With `N=C(N)NCCCCCCCCNCCCCCCCCNC(=N)N` [guazatine], the “Mechanism of inhibition of SMOX” value on SMOX [5] was “competitive inhibitors”.

For the compound `COc1ccccc1CNCCCCCCNCCCCCCCCNCCCCCCNCc1ccccc1OC` [methoctramine], the Ki at SMOX [5] is 1.2 µM.
